Measured values reported in patent US20180015455A1, “ADDITIVE CHANNELS” (Emulate Inc., priority 2016, published 2018).
“Also recorded” adds a separate entry of the source. Positions of bridges follow the written chain, without caps; N, C: chain ends. Non-standard residues stand in square brackets, D forms with d. Residues, ends and D or L forms follow the SMILES beside them. hArg = N=C(N)NCCCC[C@H](N)C(=O)O; Mpa = O=C(O)CCS

Experiments:
platelets [1] = experiment: Platelet activation quality control by p-selectin expression; format: cell-based, human; conditions: control blood upon activation by ADP
Description: To test for a thrombic event, blood was collected from 4 donors, the as blood alone or blood treated with hu5C8 alone (240 μg/mL), sCD40L (10 ng/ml) alone or with combined hu5C8/sCD40L was incubated for 20 minutes at room temperature. Each sample was further incubated for 5 minutes with fluorescent labels for platelets and fibrinogen. As a standard quality control, the control blood was tested for platelet activation using p-selection expression. We confirmed that platelets in control blood were not activated but upon activation by ADP, over 90% of platelet was positive for p-selectin.

platelets [2] = experiment: Vessel-On-Chip blood perfusion: platelet coverage/aggregation by fluorescence imaging; format: cell-based, human
Description: (§1) Briefly, human blood was drawn in citrate buffer and used within 4 hours. Platelets were stained using fluorescently labeled non-blocking antibodies for the platelet surface marker CD41 and low dosages of fluorescent fibrinogen were added in order to visualize fibrin deposition. Blood was re-calcified in order to re-establish the full coagulation potential, then introduced in the biomimetic vessel-on-chip from the main inlet (embodiments of inlets shown in FIG. 18A-1, FIG. 18A-2 and FIG. 19C). The outlet of the chip was connected to a pulling syringe pump with a system of tubing and connectors made of medical grade silicon that excludes any metal components or potential causes of platelet activation (FIG. 5A).
Platelets were labeled with human CD41-PE antibody (10 μL/ml, Invitrogen) directly added to the blood and incubated at room temperature for 5 minutes.
A medical grade plastic reservoir was mounted on the chip, then 800 μl of the blood sample was pipetted into the reservoir. The chip was perfused with the blood by withdrawing it at a rate of 60 μl/minute using a syringe pump. The citrated blood was re-calcified 2 minutes after the beginning of each experiment by adding 100 μl/ml of a solution containing 100 mM calcium chloride and 75 mM magnesium chloride to the blood to permit calcium- and magnesium-dependent platelet function and coagulation.
(§2) Chips perfused with blood samples were immediately imaged via fluorescence microscopy (Olympus IX83, 10× objective UPLFLN10X2, Orca-Flash4.0 CMOS Camera). Each chamber was inspected along its entire length and 5 images (about 0.25 cm) were captured from the central area of the chamber. Image processing and quantification was performed with an automatic macro compiled in ImageJ and numerical values corresponding to platelet coverage or fibrin florescence were collected and statistically analyzed in Graphpad Prism V7.
(§3) A percentage of signal coverage (or Platelet coverage) was computed from the binary image as the ratio of bright pixels to the total number of pixels in the image. Image processing and quantification was performed with an automatic macro compiled in ImageJ in order to ensure unbiased signal measurements. Numerical values corresponding to platelet coverage or fibrin fluorescence (signal intensity) were collected and statistically analyzed in Graphpad Prism V7.

fibrin = experiment: Vessel-On-Chip blood perfusion: fibrin deposition (fluorescent fibrinogen); format: cell-based, human
Description: as §1
When analyzing the formation of fibrin, […] of fluorescently labeled fibrinogen (Alexa 488, Invitrogen) was also added to the blood. While fluorescent fibrinogen was barely detected as a diffused fluorescence, fibrin deposition on inflamed cells and sparse clots was easily distinguished since fibrin formed filamentous structures produce a signal intensity that is clearly observed above a background threshold.
as §2, with “Each chamber was inspected along its entire length and 5 images (about 0.25 cm) were captured from the central area of the chamber.” left out
as §3

[3] = system: thrombin anti-thrombin complex (TAT); experiment: Thrombin anti-thrombin (TAT) ELISA in chip effluent plasma; format: cell-based, human
Description: Thrombin converts fibrinogen into fibrin during clot formation, and anti-thrombin plays a role in maintaining homeostasis by inhibiting the effect of thrombin. Formation of TAT in the microdevice confirms that local and intrinsic generation of thrombin, a potent platelet agonist, occurs in the model and that counter regulatory mechanisms for coagulation are retained. Thus, blood sampled from the Vessel-On-Chip was analyzed for thrombin anti-thrombin complex (TAT), an accepted clinical biomarker for procoagulation^48,49. TAT refers to a factor released upon activation of the coagulation cascade and one of the biomarkers associated with thrombotic events occurring in patients affected with deep vein thrombosis (DVT) or Systemic lupus erythematosus (SLE)^45,46. An enzyme-linked immunosorbent assay (ELISA) was used to quantify the thrombin anti-thrombin complex (TAT).
Thrombin Anti-Thrombin (TAT) levels were analyzed in plasma from blood flowing out of the chip device by removing a sample from the outflow port. Thus TAT levels were evaluated in sample effluents collected from the outflow port of the chip using the Human TAT ELISA Kit (Siemens Healthineers) according to the user manual.
Blood sampled from the Vessel-On-Chip outflow port was analyzed for thrombin anti-thrombin complex (TAT), a factor released upon activation of the coagulation cascade and one of the biomarkers associated with thrombotic events occurring in patients affected with deep vein thrombosis (DVT) or SLE^45,46. TAT is an accepted clinical biomarker for procoagulation^48,49. An enzyme-linked immunosorbent assay (ELISA) was used to quantify the thrombin anti-thrombin complex (TAT).

ICAM1 = ICAM1 immunostaining of endothelium; format: cell-based, human; conditions: TNF-α stimulated endothelium
FcγRIIa = biological target: T1, FcγRIIa (Homo sapiens, UniProt P12318); experiment: Vessel-On-Chip hu5C8-mediated thrombosis, FcγRIIa dependence (platelet coverage, fibrin deposition, TAT); format: cell-based; conditions: FcγRIIa blocked with IV.3 (1 μg/ml) or non-FcγRIIa binding IgG2σ variant, with sCD40L 10 ng/ml
T1 construct: Blood from several human donors were aliquoted into groups for the following treatments; host or cells: platelets in citrated human whole blood from donors, perfused over HUVEC-lined chips
T1 sequence (P12318 34-317): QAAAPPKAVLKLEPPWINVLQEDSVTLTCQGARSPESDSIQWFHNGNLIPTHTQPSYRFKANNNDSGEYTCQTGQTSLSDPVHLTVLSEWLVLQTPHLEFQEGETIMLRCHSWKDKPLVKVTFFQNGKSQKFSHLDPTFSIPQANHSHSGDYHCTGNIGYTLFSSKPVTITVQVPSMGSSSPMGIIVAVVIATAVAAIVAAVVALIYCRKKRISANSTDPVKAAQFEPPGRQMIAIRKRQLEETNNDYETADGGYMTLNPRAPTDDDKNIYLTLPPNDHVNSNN
Text: Recent studies conducted on humanized mice expressing the human Fcγ receptors (FCGR2A) have shown that this receptor plays a role in thrombosis leading to the IC-mediated toxicity^12,16,21. […] In order to investigate if the ICs-induced thrombosis that we observed in our vessel-on-chip system also relies on an Fc-mediated mechanism, we used two different tool molecules: IgG2a and IV.3 (FIG. 25A). The IgG2σ variant of hu5C8 has an engineered Fc region^48 that eliminates affinity for the FcγRIIa, while the monoclonal antibody IV.3 is a blocking antibody binding to FcγRIIa. Briefly, equimolar concentrations of IgG2σ or hu5c8 were incubated with 10 ng/ml of sCD40L for 20 minutes to form ICIgG2σ or IC5c8, respectively.
Some of the blood samples were treated with IV.3 (1 μg/ml) for 10 minutes to block the FcγRIIa, and then incubated for 20 more minutes with ICs. Finally, blood alone (control) or blood incubated with IC5c8, ICIgG2σ or IV.3 was perfused through the biomimetic microfluidic-on-chip for about 10 minutes. We tested 15 donors and all the tested conditions described above were tested in duplicates and analyzed as percentage of platelet coverage based on fluorescence microscopic imaging (FIG. 25B). Five of the donors were also tested for fibrin deposition (FIG. 25C). Finally, effluents plasma obtained from a total of 7 of the donors (including the 5 mentioned before) were used to assess TAT via ELISA (FIG. 25D). […]
Blood from several human donors were aliquoted into groups for the following treatments: controls (PBS), sCD40L, combined hu5C8/sCD40L, combined hu5C8 (IgG2σ)/sCD40L combined, and combined hu5C8/sCD40L/IV.3. Each condition was tested with a minimum of 3 donors to a maximum of 15 donors, and all conditions were tested in duplicates and analyzed for platelet coverage (FIG. 25B), fibrin deposition (FIG. 25C), or increased formation of TAT measured in the eluates (FIG. 25D). […]

[4] = hu5C8: lupus nephritis clinical study; IDEC-131: Crohn's disease clinical trial; cited from earlier work
[5] = Eptifibatide 2 ug/ml, endothelium inflamed with TNF-α, n=4
[6] = pro-thrombotic stimulus vs blood alone, TNF-α 50 ng/ml 6 hours on endothelium, sCollagen 10 μg/ml in blood

For `Nc1ncnc2c1ncn2[C@@H]1O[C@H](COP(=O)(O)OP(=O)(O)O)[C@@H](O)[C@H]1O` [ADP], which “platelets positive for p-selectin” value (platelets [1]) is on record?
Its value is “over 90%”.

Which “inhibition of platelet aggregation” value (platelets [2]; [5]) does the source give for `N=C(N)NCCCC[C@@H]1NC(=O)CCSSC[C@@H](C(N)=O)NC(=O)[C@@H]2CCCN2C(=O)[C@H](Cc2c[nH]c3ccccc23)NC(=O)[C@H](CC(=O)O)NC(=O)CNC1=O` [Eptifibatide] ([Mpa][hArg]GDWPC-NH2; disulfide 1-7) here?
Its value is “significantly inhibited”.

What about the “inhibitory effect on platelet aggregation and fibrin clot formation” value (platelets [2]; Eptifibatide 2 ug/ml, following treatment with sCollagen, n=4) of the same molecule?
Its value is “comparatively modest”.

And the “platelet adhesion (image analysis of multiple experiments)” value (platelets [2]; Eptifibatide 2 ug/ml, n=4)?
Its value is “completely inhibited”.

And the “effect on platelet coverage and fibrin deposition in stimulated, pro-thrombotic conditions” value (platelets [2]; Eptifibatide added, TNF-α or sCollagen, n=4)?
Its value is “suppressed; also recorded: inhibited”.

What about the “inhibition of fibrin clot formation” value (fibrin; [5]) of the same molecule?
Its value is “significantly inhibited”.

And the “fibrin signal remaining with Eptifibatide” value (fibrin; Eptifibatide 2 ug/ml, samples treated with TNF-α)?
The value was “still detectable”.

And the “effect on TAT increment associated with TNF-α-induced inflammation” value ([3]; Eptifibatide treatment)?
The value was “did not inhibit”.

What about the “effect on TAT increment due to sCollagen treatment” value ([3]; Eptifibatide treatment) of the same molecule?
The value was “entirely suppressed”.

What does the source list for TNF-α?
ICAM1 expression in the endothelium compared to control (ICAM1): increased expression; also recorded: higher; platelet coverage (platelets [2]; [6]): significantly increased; fibrin deposition / fibrin signal intensity (fibrin; [6]): significantly increased; levels of TAT in outflow samples ([3]; after treatment, FIG. 22B): significantly increased; also recorded: elevated levels

With “hu5C8 (IgG2σ): IgG2σ variant of hu5C8 with an engineered Fc region that eliminates affinity for FcγRIIa” as the molecule, how does the “hu5C8-mediated thrombosis on-chip (all endpoints)” value (“hu5C8-mediated thrombosis on-chip” below) (FcγRIIa) read?
Its value is “did not show signs of thrombosis”.

And the “hu5C8-mediated thrombosis on-chip” value (FcγRIIa; listed as IgG2σ)?
The value was “suppressed”.

And the “hu5C8-mediated thrombosis on-chip” value (FcγRIIa; listed as hu5C8-IgG2σ)?
Its value is “not detected”.

With “hu5C8: humanized monoclonal IgG1 antibody against CD40L (anti-CD154)” as the molecule, how does the “treatment-related effects compared to untreated blood” value (platelets [2]; hu5C8 alone 240 μg/mL or sCD40L alone 10 ng/ml, 4 donors, 60 μl/minute) read?
Its value is “no significant treatment-related effects”.

And the “incidence of thromboembolic events” value [4]?
The value was 2/18.
